Source: patent US9340590B2 (priority 2011, dated 2016)
Like-named read-outs stand apart in the source and are kept apart here. Positions of bridges follow the written chain, without caps; N, C: chain ends. Non-standard residues stand in square brackets, D forms with d. Residues, ends and D or L forms follow the SMILES beside them. *: point of attachment. Phe(4-COOH) = N[C@@H](Cc1ccc(C(=O)O)cc1)C(=O)O; 1Nal = N[C@@H](Cc1cccc2ccccc12)C(=O)O; NMeF = CN[C@@H](Cc1ccccc1)C(=O)O; Pent4ynoyl = C#CCCC(=O)*; Abu = CC[C@H](N)C(=O)O

Tests used:
Assay in all cases: cell-based
[1] = biological target: hNav1.7 (Homo sapiens, UniProt Q15858); format: cell-based; conditions: IonWorks Quattro, read-out: IWQ Use Nav1.7
[2] = biological target: hNav1.3 (Homo sapiens, UniProt Q9NY46); conditions: IonWorks Quattro, read-out: IWQ Use Nav1.3
[3] = biological target: hNav1.5 (Homo sapiens, UniProt Q14524); conditions: IonWorks Quattro, read-out: IWQ Use Nav1.5
Chain of hNav1.5 (Q14524 whole entry, looked up): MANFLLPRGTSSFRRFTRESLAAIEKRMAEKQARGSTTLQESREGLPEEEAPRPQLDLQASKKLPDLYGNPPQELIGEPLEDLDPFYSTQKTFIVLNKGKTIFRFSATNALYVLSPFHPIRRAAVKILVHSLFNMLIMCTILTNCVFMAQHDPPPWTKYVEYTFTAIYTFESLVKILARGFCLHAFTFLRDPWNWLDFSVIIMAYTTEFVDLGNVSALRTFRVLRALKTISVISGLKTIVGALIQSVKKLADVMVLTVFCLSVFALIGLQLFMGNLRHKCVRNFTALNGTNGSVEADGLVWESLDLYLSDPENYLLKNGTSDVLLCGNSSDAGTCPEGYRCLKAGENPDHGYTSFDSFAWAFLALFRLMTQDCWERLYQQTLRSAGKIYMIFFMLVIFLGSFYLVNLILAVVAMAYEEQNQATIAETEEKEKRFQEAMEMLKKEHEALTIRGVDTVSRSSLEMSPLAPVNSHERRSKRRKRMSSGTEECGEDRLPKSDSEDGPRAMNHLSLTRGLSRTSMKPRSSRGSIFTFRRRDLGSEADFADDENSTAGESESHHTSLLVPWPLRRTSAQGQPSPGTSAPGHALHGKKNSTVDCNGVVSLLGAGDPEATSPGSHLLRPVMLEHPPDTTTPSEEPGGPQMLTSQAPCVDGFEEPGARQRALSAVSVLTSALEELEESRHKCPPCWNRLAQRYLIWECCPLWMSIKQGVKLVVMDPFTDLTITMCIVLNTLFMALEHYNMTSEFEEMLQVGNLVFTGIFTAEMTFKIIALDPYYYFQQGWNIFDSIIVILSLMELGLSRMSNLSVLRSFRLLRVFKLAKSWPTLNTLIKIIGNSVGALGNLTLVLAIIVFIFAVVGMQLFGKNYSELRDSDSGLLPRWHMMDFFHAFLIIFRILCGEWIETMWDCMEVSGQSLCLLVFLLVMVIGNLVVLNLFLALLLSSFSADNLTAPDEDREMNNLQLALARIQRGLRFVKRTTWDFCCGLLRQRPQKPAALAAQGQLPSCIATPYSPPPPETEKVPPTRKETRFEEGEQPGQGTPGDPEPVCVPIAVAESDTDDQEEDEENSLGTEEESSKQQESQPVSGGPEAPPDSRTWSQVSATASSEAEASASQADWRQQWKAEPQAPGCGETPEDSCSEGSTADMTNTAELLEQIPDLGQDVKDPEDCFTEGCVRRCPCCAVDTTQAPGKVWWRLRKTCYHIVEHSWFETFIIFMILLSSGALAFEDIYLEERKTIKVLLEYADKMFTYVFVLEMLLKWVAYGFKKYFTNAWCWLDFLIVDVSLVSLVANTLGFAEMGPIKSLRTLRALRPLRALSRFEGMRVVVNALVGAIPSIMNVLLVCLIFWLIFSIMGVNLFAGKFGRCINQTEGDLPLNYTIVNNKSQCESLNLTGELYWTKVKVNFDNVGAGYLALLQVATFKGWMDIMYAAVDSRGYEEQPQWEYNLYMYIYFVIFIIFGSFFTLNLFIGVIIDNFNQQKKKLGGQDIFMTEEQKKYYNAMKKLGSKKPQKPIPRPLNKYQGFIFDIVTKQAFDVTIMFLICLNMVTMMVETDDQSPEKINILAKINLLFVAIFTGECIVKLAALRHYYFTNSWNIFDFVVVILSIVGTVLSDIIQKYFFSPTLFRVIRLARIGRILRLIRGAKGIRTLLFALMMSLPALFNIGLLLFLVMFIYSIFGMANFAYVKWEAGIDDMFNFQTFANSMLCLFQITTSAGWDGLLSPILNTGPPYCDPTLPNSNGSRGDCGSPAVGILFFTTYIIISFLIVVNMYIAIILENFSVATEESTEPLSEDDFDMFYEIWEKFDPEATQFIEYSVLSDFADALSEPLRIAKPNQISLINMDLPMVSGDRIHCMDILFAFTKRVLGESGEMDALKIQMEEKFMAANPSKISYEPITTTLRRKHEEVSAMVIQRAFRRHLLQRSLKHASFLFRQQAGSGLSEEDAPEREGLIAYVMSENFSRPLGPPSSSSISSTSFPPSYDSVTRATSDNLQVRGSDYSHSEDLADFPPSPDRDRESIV

Chain of hNav1.7 (Q15858 whole entry, looked up): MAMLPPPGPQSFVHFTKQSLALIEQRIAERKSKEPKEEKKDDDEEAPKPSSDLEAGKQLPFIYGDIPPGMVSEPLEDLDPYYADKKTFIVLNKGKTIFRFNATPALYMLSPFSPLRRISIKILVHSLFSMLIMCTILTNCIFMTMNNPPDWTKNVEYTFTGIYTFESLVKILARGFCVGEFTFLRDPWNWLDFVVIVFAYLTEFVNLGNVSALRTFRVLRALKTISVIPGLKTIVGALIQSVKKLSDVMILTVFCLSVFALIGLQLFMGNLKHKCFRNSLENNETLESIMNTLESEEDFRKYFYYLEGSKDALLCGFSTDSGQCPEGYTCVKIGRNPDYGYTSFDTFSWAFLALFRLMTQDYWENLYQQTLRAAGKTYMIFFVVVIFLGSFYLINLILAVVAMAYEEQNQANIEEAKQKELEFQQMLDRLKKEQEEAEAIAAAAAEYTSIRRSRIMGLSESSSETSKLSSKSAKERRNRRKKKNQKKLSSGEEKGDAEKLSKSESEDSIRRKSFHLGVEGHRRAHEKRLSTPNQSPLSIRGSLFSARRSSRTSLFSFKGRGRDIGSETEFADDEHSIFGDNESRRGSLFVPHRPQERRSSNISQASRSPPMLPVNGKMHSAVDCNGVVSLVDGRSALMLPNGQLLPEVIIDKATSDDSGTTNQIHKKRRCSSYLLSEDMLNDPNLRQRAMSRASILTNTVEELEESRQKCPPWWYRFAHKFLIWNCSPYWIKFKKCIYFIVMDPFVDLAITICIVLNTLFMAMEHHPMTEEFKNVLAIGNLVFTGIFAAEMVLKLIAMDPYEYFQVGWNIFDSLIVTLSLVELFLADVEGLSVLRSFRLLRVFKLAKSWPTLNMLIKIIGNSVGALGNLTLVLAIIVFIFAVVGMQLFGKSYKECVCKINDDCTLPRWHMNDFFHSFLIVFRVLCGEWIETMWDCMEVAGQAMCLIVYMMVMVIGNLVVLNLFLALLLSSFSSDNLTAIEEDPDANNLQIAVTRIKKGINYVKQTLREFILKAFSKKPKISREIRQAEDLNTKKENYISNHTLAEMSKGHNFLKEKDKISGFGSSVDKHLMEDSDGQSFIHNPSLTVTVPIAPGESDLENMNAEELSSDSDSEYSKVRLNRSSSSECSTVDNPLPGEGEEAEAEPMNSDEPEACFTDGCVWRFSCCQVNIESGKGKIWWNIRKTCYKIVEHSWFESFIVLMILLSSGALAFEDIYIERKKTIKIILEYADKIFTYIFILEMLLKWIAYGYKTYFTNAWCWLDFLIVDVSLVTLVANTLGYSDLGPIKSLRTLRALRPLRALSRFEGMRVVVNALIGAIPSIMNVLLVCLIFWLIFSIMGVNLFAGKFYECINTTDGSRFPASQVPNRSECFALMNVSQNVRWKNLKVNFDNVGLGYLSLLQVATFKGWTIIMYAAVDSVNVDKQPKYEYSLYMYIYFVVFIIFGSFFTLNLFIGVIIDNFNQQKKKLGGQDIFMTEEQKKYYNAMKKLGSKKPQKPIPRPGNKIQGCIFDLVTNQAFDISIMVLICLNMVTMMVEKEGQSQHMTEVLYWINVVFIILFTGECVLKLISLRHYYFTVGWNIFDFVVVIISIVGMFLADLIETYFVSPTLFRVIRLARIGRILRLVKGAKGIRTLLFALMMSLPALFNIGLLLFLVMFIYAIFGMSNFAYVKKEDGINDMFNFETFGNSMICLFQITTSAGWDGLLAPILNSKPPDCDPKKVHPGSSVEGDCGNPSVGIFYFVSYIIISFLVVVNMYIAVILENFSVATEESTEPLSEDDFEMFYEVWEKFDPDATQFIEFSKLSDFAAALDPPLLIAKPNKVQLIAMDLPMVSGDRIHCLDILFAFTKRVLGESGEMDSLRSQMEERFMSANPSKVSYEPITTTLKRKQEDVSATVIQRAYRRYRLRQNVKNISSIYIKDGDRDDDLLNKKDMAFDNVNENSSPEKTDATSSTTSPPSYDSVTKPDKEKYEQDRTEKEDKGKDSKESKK

With `CC[C@H](C)[C@@H]1NC(=O)[C@@H]2CSSC[C@@H]3NC(=O)[C@H](C(C)C)NC(=O)[C@H](CC(C)C)NC(=O)[C@H](CC(N)=O)NC(=O)[C@@H]4CCCN4C(=O)[C@H](CCCNC(=N)N)NC(=O)[C@H](CSSC[C@H](NC(=O)[C@@H](N)CC(=O)O)C(=O)N[C@@H](CC(C)C)C(=O)NCC(=O)N[C@@H](Cc4ccccc4)C(=O)N[C@@H](CCSC)C(=O)N[C@@H](CCCNC(=N)N)C(=O)N[C@@H](CCCCN)C(=O)N2)NC(=O)[C@H](CSSC[C@@H](C(=O)N[C@@H](CCCCN)C(=O)N[C@@H](Cc2ccc(O)cc2)C(=O)N[C@H](C(=O)N[C@@H](Cc2ccccc2)C(N)=O)C(C)C)NC(=O)[C@H](Cc2c[nH]c4ccccc24)NC(=O)[C@H](CCCCN)NC(=O)[C@H](Cc2c[nH]cn2)NC(=O)[C@H](Cc2ccccc2)NC(=O)[C@H](CCCNC(=N)N)NC(=O)[C@H](CO)NC3=O)NC(=O)[C@H](CCCCN)NC(=O)[C@H](CC(=O)O)NC(=O)[C@H](CC(N)=O)NC(=O)[C@H](CC(=O)O)NC(=O)[C@@H]2CCCN2C1=O` [compound 341] (H-DCLGFMRKCIPDNDKCCRPNLVCSRFHKWCKYVF-NH2; disulfide 2-17, 9-23, 16-30) the IC50 ([1]; Table 22, use, […]) was 0.08 µM, the IC50 ([2]; Table 22, use, […]) was 0.1 µM and the IC50 ([3]; Table 22, use, […]) was 5.88 µM.
Molecule `CC[C@H](C)[C@@H]1NC(=O)[C@@H]2CSSC[C@@H]3NC(=O)[C@H](C(C)C)NC(=O)[C@H](CC(C)C)NC(=O)[C@H](CC(N)=O)NC(=O)[C@@H]4CCCN4C(=O)[C@H](CCCNC(=N)N)NC(=O)[C@H](CSSC[C@H](NC(=O)[C@@H](N)CC(=O)O)C(=O)N[C@@H](CC(C)C)C(=O)NCC(=O)N(C)[C@@H](Cc4ccccc4)C(=O)N[C@@H](Cc4ccccc4)C(=O)N[C@@H](CCCNC(=N)N)C(=O)N[C@@H](CCCCN)C(=O)N2)NC(=O)[C@H](CSSC[C@@H](C(=O)N[C@@H](CCCCN)C(=O)N[C@@H](Cc2ccc(O)cc2)C(=O)N[C@H](C(=O)N[C@@H](Cc2ccccc2)C(N)=O)C(C)C)NC(=O)[C@H](Cc2c[nH]c4ccccc24)NC(=O)[C@H](CCCCN)NC(=O)[C@H](Cc2c[nH]cn2)NC(=O)[C@H]([C@@H](C)O)NC(=O)[C@H](CCCNC(=N)N)NC(=O)[C@H](CO)NC3=O)NC(=O)[C@H](CCCCN)NC(=O)[C@H](CC(=O)O)NC(=O)[C@H](CC(N)=O)NC(=O)[C@H](CC(=O)O)NC(=O)[C@@H]2CCCN2C1=O` [compound 629] (H-DCLG[NMeF]FRKCIPDNDKCCRPNLVCSRTHKWCKYVF-NH2; disulfide 2-17, 9-23, 16-30) has an IC50 ([1]; use-dependent protocol, hNav1.7) of 0.077 µM, an IC50 ([2]; use-dependent protocol, hNav1.3) of 0.095 µM and an IC50 ([3]; use-dependent protocol, hNav1.5) of 13.6 µM.
`CC[C@H](C)[C@@H]1NC(=O)[C@@H]2CSSC[C@@H]3NC(=O)[C@H](C(C)C)NC(=O)[C@H](CC(C)C)NC(=O)[C@H](CC(N)=O)NC(=O)[C@@H]4CCCN4C(=O)[C@H](CCCNC(=N)N)NC(=O)[C@H](CSSC[C@H](NC(=O)[C@@H](N)CC(=O)O)C(=O)N[C@@H](CC(C)C)C(=O)NCC(=O)N[C@@H](Cc4ccccc4)C(=O)N[C@@H](CCSC)C(=O)N[C@@H](CCCNC(=N)N)C(=O)N[C@@H](CCCCN)C(=O)N2)NC(=O)[C@H](CSSC[C@@H](C(=O)N[C@@H](CCCCN)C(=O)N[C@@H](Cc2ccc(O)cc2)C(=O)N[C@H](C(=O)N[C@@H](Cc2ccccc2)C(N)=O)C(C)C)NC(=O)[C@H](Cc2c[nH]c4ccccc24)NC(=O)[C@H](CCCCN)NC(=O)[C@H](Cc2c[nH]cn2)NC(=O)[C@H]([C@@H](C)O)NC(=O)[C@H](CCCNC(=N)N)NC(=O)[C@H](CO)NC3=O)NC(=O)[C@H](CCCCN)NC(=O)[C@H](CC(=O)O)NC(=O)[C@H](Cc2cccc3ccccc23)NC(=O)[C@H](CC(=O)O)NC(=O)[C@@H]2CCCN2C1=O` [compound 163] (H-DCLGFMRKCIPD[1Nal]DKCCRPNLVCSRTHKWCKYVF-NH2; disulfide 2-17, 9-23, 16-30) showed an IC50 ([1]; Use) of 0.11 µM, an IC50 ([2]; Use) of 0.09 µM and an IC50 ([3]; Use) of 8.27 µM.
With `CC[C@H](C)[C@@H]1NC(=O)[C@@H]2CSSC[C@@H]3NC(=O)[C@H](C(C)C)NC(=O)[C@H](CC(C)C)NC(=O)[C@H](CC(N)=O)NC(=O)[C@@H]4CCCN4C(=O)[C@H](CCCNC(=N)N)NC(=O)[C@H](CSSC[C@H](NC(=O)[C@@H](N)CC(=O)O)C(=O)N[C@@H](CC(C)C)C(=O)NCC(=O)N[C@@H](C)C(=O)N[C@@H](Cc4ccccc4)C(=O)N[C@@H](CCCNC(=N)N)C(=O)N[C@@H](CCCCN)C(=O)N2)NC(=O)[C@H](CSSC[C@@H](C(=O)N[C@@H](CCCCN)C(=O)N[C@@H](Cc2ccc(O)cc2)C(=O)N[C@H](C(=O)N[C@@H](Cc2ccccc2)C(=O)O)C(C)C)NC(=O)[C@H](Cc2c[nH]c4ccccc24)NC(=O)CNC(=O)[C@H](Cc2c[nH]cn2)NC(=O)[C@H]([C@@H](C)O)NC(=O)[C@H](CCCNC(=N)N)NC(=O)[C@H](CO)NC3=O)NC(=O)[C@H](CCCCN)NC(=O)[C@H](CC(=O)O)NC(=O)[C@H](CC(N)=O)NC(=O)[C@H](CC(=O)O)NC(=O)[C@@H]2CCCN2C1=O` [compound 827] (H-DCLGAFRKCIPDNDKCCRPNLVCSRTHGWCKYVF-OH; disulfide 2-17, 9-23, 16-30) the IC50 ([1]; use-dependent block, hNav1.7) was over 5 µM, the IC50 ([2]; use-dependent block, hNav1.3) was over 5 µM and the IC50 ([3]; use-dependent block, hNav1.5) was over 5 µM.
`C#CCCC(=O)N[C@@H](CC(=O)O)C(=O)N[C@H]1CSSC[C@@H]2NC(=O)[C@@H]3CSSC[C@@H](C(=O)N[C@@H](CCCCN)C(=O)N[C@@H](Cc4ccc(O)cc4)C(=O)N[C@H](C(=O)N[C@@H](Cc4ccccc4)C(N)=O)C(C)C)NC(=O)[C@H](Cc4c[nH]c5ccccc45)NC(=O)[C@H](CCCCN)NC(=O)[C@H](Cc4c[nH]cn4)NC(=O)[C@H]([C@@H](C)O)NC(=O)[C@H](CCCNC(=N)N)NC(=O)[C@H](CO)NC(=O)[C@H](CSSC[C@H](NC(=O)[C@H](CCCCN)NC(=O)[C@H](CCCNC(=N)N)NC(=O)[C@H](Cc4ccccc4)NC(=O)[C@H](C)NC(=O)CNC(=O)[C@H](CC(C)C)NC1=O)C(=O)N[C@@H]([C@@H](C)CC)C(=O)N1CCC[C@H]1C(=O)N[C@@H](CC(=O)O)C(=O)N[C@@H](CC)C(=O)N[C@@H](CC(=O)O)C(=O)N[C@@H](CCCCN)C(=O)N3)NC(=O)[C@H](C(C)C)NC(=O)[C@H](CC(C)C)NC(=O)[C@H](CC(N)=O)NC(=O)[C@@H]1CCCN1C(=O)[C@H](CCCNC(=N)N)NC2=O` [compound 757] (Pent4ynoyl-DCLGAFRKCIPD[Abu]DKCCRPNLVCSRTHKWCKYVF-NH2; disulfide 2-17, 9-23, 16-30) showed an IC50 ([1]; use-dependent block, hNav1.7) of 0.71 µM, an IC50 ([2]; use-dependent block, hNav1.3) of 0.28 µM and an IC50 ([3]; use-dependent block, hNav1.5) of 34.9 µM.
Work on `CC[C@H](C)[C@@H]1NC(=O)[C@@H]2CSSC[C@@H]3NC(=O)[C@H](C(C)C)NC(=O)[C@H](CC(C)C)NC(=O)[C@H](CC(N)=O)NC(=O)[C@@H]4CCCN4C(=O)[C@H](CCCNC(=N)N)NC(=O)[C@H](CSSC[C@H](NC(=O)[C@@H](N)CC(=O)O)C(=O)N[C@@H](CC(C)C)C(=O)NCC(=O)N[C@@H](Cc4ccccc4)C(=O)N[C@@H](CCSC)C(=O)N[C@@H](CCCNC(=N)N)C(=O)N[C@@H](CCCCN)C(=O)N2)NC(=O)[C@H](CSSC[C@@H](C(=O)N[C@@H](CCCCN)C(=O)N[C@@H](Cc2ccc(O)cc2)C(=O)N[C@H](C(=O)N[C@@H](Cc2ccccc2)C(N)=O)C(C)C)NC(=O)[C@H](Cc2ccc(C(=O)O)cc2)NC(=O)[C@H](CCCCN)NC(=O)[C@H](Cc2c[nH]cn2)NC(=O)[C@H]([C@@H](C)O)NC(=O)[C@H](CCCNC(=N)N)NC(=O)[C@H](CO)NC3=O)NC(=O)[C@H](CCCCN)NC(=O)[C@H](CC(=O)O)NC(=O)[C@H](CC(N)=O)NC(=O)[C@H](CC(=O)O)NC(=O)[C@@H]2CCCN2C1=O` [compound 363] (H-DCLGFMRKCIPDNDKCCRPNLVCSRTHK[Phe(4-COOH)]CKYVF-NH2; disulfide 2-17, 9-23, 16-30) yielded an IC50 ([1]; Table 24, use, […]) of 15 µM, an IC50 ([2]; Table 24, use, […]) of 14.9 µM and an IC50 ([3]; Table 24, use, […]) of 18.8 µM.
`CC[C@H](C)[C@@H]1NC(=O)[C@@H]2CSSC[C@@H]3NC(=O)[C@H](C(C)C)NC(=O)[C@H](CC(C)C)NC(=O)[C@H](CC(N)=O)NC(=O)[C@@H]4CCCN4C(=O)[C@H](CCCNC(=N)N)NC(=O)[C@H](CSSC[C@H](NC(=O)[C@@H](N)CC(=O)O)C(=O)N[C@@H](CC(C)C)C(=O)NCC(=O)N[C@@H](Cc4ccccc4)C(=O)N[C@@H](CCSC)C(=O)N[C@@H](CCCNC(=N)N)C(=O)N[C@@H](CCCCN)C(=O)N2)NC(=O)[C@H](CSSC[C@@H](C(=O)N[C@@H](CCCCN)C(=O)N[C@@H](Cc2ccc(O)cc2)C(=O)N[C@H](C(=O)N[C@@H](Cc2ccccc2)C(N)=O)C(C)C)NC(=O)[C@H](Cc2c[nH]c4ccccc24)NC(=O)[C@H](CCCCN)NC(=O)[C@H](Cc2ccccc2)NC(=O)[C@H]([C@@H](C)O)NC(=O)[C@H](CCCNC(=N)N)NC(=O)[C@H](CO)NC3=O)NC(=O)[C@H](CCCCN)NC(=O)[C@H](CC(=O)O)NC(=O)[C@H](CC(N)=O)NC(=O)[C@H](CC(=O)O)NC(=O)[C@@H]2CCCN2C1=O` [compound 109] (H-DCLGFMRKCIPDNDKCCRPNLVCSRTFKWCKYVF-NH2; disulfide 2-17, 9-23, 16-30) gave an IC50 ([1]; Table 23, use, […]) of 0.22 µM, an IC50 ([2]; Table 23, use, […]) of 0.53 µM and an IC50 ([3]; Table 23, use, […]) of 2.06 µM.
